Assay results from patent publication US20210382058A1, “PATIENT SELECTION FOR TREATMENT OF MYC POSITIVE CANCERS WITH INDENOISOQUINOLINES” (Purdue Research Foundation, priority 2020, published 2021).
Like-named read-outs stand apart in the source and are kept apart here.

Experiments:
[1] = tested on: NCI-60 cancer cell lines; assay: NCI-60 cancer cell line drug screen (GI50, MGM); format: cell-based, human; details: Homo sapiens; for GI50: read-out: Antiproliferative Activities [GI50 (μM)]
Description: Cancer cells were incubated with the test compounds at five concentrations ranging from 100 μM to 10 nM for 48 h. […] The approximate average of GI50 values across the entire panel of NCI-60 cancer cell lines for each compound was recorded as the MGM value.

[2] = tested on: MYC protein expression in MCF-7 breast cancer cells; assay: Western blotting of MYC protein level in MCF-7 cells; format: cell-based, human
Method in brief: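 Immunoblotting with ECL detection quantified MYC, with GAPDH (1:2000) as reference and anti-MYC at 1:1000.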

[3] = molecular target: T1, human topoisomerase I (Homo sapiens, UniProt P11387); details: relative topoisomerase I inhibition levels, previously determined, six levels (0 - 5, +++++ = 5); cited from earlier work
T1 sequence (P11387 1-765): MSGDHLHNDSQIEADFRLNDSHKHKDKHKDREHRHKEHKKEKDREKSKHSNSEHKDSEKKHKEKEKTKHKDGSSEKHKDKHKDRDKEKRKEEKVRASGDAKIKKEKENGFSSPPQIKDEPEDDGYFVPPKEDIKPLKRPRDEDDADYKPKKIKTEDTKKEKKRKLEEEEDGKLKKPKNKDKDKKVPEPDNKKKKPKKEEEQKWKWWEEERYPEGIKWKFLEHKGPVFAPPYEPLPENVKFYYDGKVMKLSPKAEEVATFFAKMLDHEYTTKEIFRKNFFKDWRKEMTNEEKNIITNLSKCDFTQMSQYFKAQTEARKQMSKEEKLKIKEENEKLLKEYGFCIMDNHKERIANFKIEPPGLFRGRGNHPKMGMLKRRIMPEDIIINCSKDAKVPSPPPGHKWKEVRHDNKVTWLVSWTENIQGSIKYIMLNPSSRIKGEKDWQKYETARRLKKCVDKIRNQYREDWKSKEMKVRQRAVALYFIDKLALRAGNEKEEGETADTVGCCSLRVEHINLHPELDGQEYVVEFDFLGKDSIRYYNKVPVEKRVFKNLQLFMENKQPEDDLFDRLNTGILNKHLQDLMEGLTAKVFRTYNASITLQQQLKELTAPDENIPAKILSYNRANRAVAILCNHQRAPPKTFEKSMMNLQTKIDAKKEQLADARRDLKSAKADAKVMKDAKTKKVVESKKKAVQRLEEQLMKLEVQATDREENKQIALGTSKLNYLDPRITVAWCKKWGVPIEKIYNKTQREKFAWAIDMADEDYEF

## CNCCCn1c2c(c3ccc(F)cc3c1=O)C(=O)c1cc(OC)cnc1-2 [Compound 6]
[1]; 786-0, Renal Cancer, 786-0
  GI50: 0.2 µM
[1]; A498, Renal Cancer, A498
  GI50: 0.37 µM
[1]; A549, Non-Small Cell Lung Cancer, A549/ATCC
  GI50: 0.11 µM
[1]; ACHN, Renal Cancer, ACHN
  GI50: 0.12 µM
[1]; BT-549, Breast Cancer, BT-549
  GI50: 0.58 µM
[1]; CCRF-CEM, Leukemia, CCRF-CEM
  GI50: 0.26 µM
[1]; COLO 205, Colon Cancer, COLO 205
  GI50: 0.07 µM
[1]; DU-145, Prostate Cancer, DU-145
  GI50: 0.2 µM
[1]; EKVX, Non-Small Cell Lung Cancer, EKVX
  GI50: 0.3 µM
[1]; HCC 2998, Colon Cancer, HCC-2998
  GI50: 1.15 µM
[1]; HCT-15, Colon Cancer, HCT-15
  GI50: 0.25 µM
[1]; HCT-116, Colon Cancer, HCT-116
  GI50: 0.14 µM
[1]; HL-60, Leukemia, HL-60(TB)
  GI50: 0.22 µM
[1]; HOP-62, Non-Small Cell Lung Cancer, HOP-62
  GI50: 0.14 µM
[1]; HOP-92, Non-Small Cell Lung Cancer, HOP-92
  GI50: 0.37 µM
[1]; HT-29, Colon Cancer, HT29
  GI50: 0.15 µM
[1]; Hs-578T, Breast Cancer, HS 578T
  GI50: 2.24 µM
[1]; IGROV-1, Ovarian Cancer, IGROV1
  GI50: 0.32 µM
[1]; K562, Leukemia, K-562
  GI50: 0.17 µM
[1]; KM12, Colon Cancer, KM12
  GI50: 0.24 µM
[1]; LOX IMVI, Melanoma, LOX IMVI
  GI50: 0.14 µM
[1]; Leukemia, SR
  GI50: 0.12 µM
[1]; MCF7, Breast Cancer, MCF7
  GI50: 0.03 µM
[1]; MDA-MB-231, Breast Cancer, MDA-MB-231/ATCC
  GI50: 0.7 µM
[1]; MDA-MB-435, Melanoma, MDA-MB-435
  GI50: 0.47 µM
[1]; MDA-MB-468, Breast Cancer, MDA-MB-468
  GI50: 0.22 µM
[1]; MOLT-4, Leukemia, MOLT-4
  GI50: 0.04 µM
[1]; Malme-3M, Melanoma, MALME-3M
  GI50: 0.32 µM
[1]; Melanoma, M14
  GI50: 0.31 µM
[1]; NCI-H23, Non-Small Cell Lung Cancer, NCI-H23
  GI50: 0.31 µM
[1]; NCI-H226, Non-Small Cell Lung Cancer, NCI-H226
  GI50: 0.16 µM
[1]; NCI-H322M, Non-Small Cell Lung Cancer, NCI-H322M
  GI50: 0.45 µM
[1]; NCI-H460, Non-Small Cell Lung Cancer, NCI-H460
  GI50: 0.05 µM
[1]; NCI-H522, Non-Small Cell Lung Cancer, NCI-H522
  GI50: 0.06 µM
[1]; OVCAR-3, Ovarian Cancer, OVCAR-3
  GI50: 0.26 µM
[1]; OVCAR-4, Ovarian Cancer, OVCAR-4
  GI50: 0.42 µM
[1]; OVCAR-5, Ovarian Cancer, OVCAR-5
  GI50: 0.35 µM
[1]; OVCAR-8, Ovarian Cancer, OVCAR-8
  GI50: 0.19 µM
[1]; Ovarian Cancer, NCl/ADR-RES
  GI50: 0.43 µM
[1]; Prostate Cancer, PC-3
  GI50: 0.37 µM
[1]; RPMI-8226, Leukemia, RPMI-8226
  GI50: 0.2 µM
[1]; RXF 393, Renal Cancer, RXF 393
  GI50: 0.32 µM
[1]; Renal Cancer, U0-31
  GI50: 0.13 µM
[1]; SF-268, CNS Cancer, SF-268
  GI50: 0.38 µM
[1]; SF-295, CNS Cancer, SF-295
  GI50: 0.19 µM
[1]; SF-539, CNS Cancer, SF-539
  GI50: 0.37 µM
[1]; SK-MEL-2, Melanoma, SK-MEL-2
  GI50: 1.6 µM
[1]; SK-MEL-5, Melanoma, SK-MEL-5
  GI50: 0.31 µM
[1]; SK-MEL-28, Melanoma, SK-MEL-28
  GI50: 1.44 µM
[1]; SK-OV-3, Ovarian Cancer, SK-OV-3
  GI50: 0.23 µM
[1]; SN12C, Renal Cancer, SN12C
  GI50: 0.21 µM
[1]; SNB-19, CNS Cancer, SNB-19
  GI50: 0.22 µM
[1]; SNB-75, CNS Cancer, SNB-75
  GI50: 0.25 µM
[1]; SW-620, Colon Cancer, SW-620
  GI50: 0.18 µM
[1]; T47D, Breast Cancer, T-47D
  GI50: 0.16 µM
[1]; TK-10, Renal Cancer, TK-10
  GI50: 0.33 µM
[1]; U-251, CNS Cancer, U251
  GI50: 0.11 µM
[1]; UACC-62, Melanoma, UACC-62
  GI50: 0.61 µM
[1]; UACC-257, Melanoma, UACC-257
  GI50: 0.49 µM
[1]; average of GI50 values across the entire panel of NCI-60 cancer cell lines
  mean GI50 across NCI-60 panel (MGM): 0.24 µM
[2]; Homo sapiens, MCF7, western blotting, MCF-7 cells, 0.5, 1, 2, and 4 μM, 24 hours, read-out: MYC Inhibition
  minimal effective concentration: 0.5 to 1 µM
[2]; MCF-7, 0.5, 1, 2, and 4 μM, 24 h
  MYC-inhibitory effect (MYC protein, western blot): clear MYC-inhibitory effect
[3]
  Top1 Inhibiton: + (weak inhibition, +, MYC expression inhibited at 4.0 μM)
